This is an account of results in patent US20130053305A1, “PEPTIDE COMPOUNDS THAT CAN BE USED AS ANTIBACTERIAL AGENTS” (UNIVERSIDAD DE BARCELONA, priority 2010, published 2013).

Assay [1] has as its system Microccous luteus ATCC 9341. The assay is classed as cell-based, Micrococcus luteus. The method, then: (§1) The antibacterial activity of the lipopeptides was measured in sterile 96-well plates (Corning Costar 3598 microtiter plates). Samples of a final volume of 200 μL were prepared as follows: aliquots (100 μL) of a suspension containing bacteria at a concentration of 10^5 colony-forming units/mL in culture medium (MH, Muller Hinton Broth, Difco, USA), adjusted at pH 7.4, were added to 100 μL of solution containing the peptide prepared from a stock solution of 1 mg/mL peptide in water in serial 2-fold dilutions in MH broth adjusted to pH 7.4 (Jorgensen and Turnide, 2003).
(§2) Inhibition of bacterial growth was determined by measuring the absorbance at 492 nm with a Absorbance Microplate reader ELx 800 (Bio-tek Instruments) after an incubation of 24-48 h at 37° C. Antibacterial activities are expressed as the MIC, the concentration at which no growth is observed after 24-48 h of incubation.
(§3) Microorganisms were cultured on Tryptycase Soy Broth (Pronadisa, Barcelona) and incubated at 37° C. until bacterial growth was observed. Then a loopful was streaked on Trypticase Soy Agar (Pronadisa, Barcelona) and incubated at 37° C. until colony formation occurred. Microorganisms were preserved on cryobilles (EAS laboratoire, France) at −20° C.
(§4) Bacterial strains used for the antibacterial activity tests were obtained from the American Type Culture Collection (ATCC, Rockville, Md., USA): […]

Assay [2] relates to Staphylococcus aureus ATCC 6538. The format is cell-based. The method, then:
as §1, §2, §3, §4

Assay [3] has as its system Mycobacterium phlei ATCC 41423. The format is cell-based. The method, then:
as §1, §2, §3, §4

Assay [4] has as its system Acinetobacter sp ATCC 5798. The assay is classed as cell-based. The method, then: as §1, §2, §3
(§5) Bacterial strains used for the antibacterial activity tests were obtained from the American Type Culture Collection (ATCC, Rockville, Md., USA):
Acinetobacter sp ATCC 5798

Assay [5] concerns Pseudomonas aeruginosa ATCC 9027. The format is cell-based. The protocol:
as §1, §2, §3, §5
(§6) Escherichia coli ATCC 8739 Pseudomonas aeruginosa ATCC 9027 Salmonella typhimurium ATCC 14028

The subject of assay [6] is Salmonella typhimurium ATCC 14028. The format is cell-based. The method, then: as §1, §2, §3, §5, §6
In assay [7] the test system is Escherichia coli ATCC 8739. The assay is classed as cell-based. The method, then: as §1, §2, §3, §5, §6
The test system of the next assay is Gram positive bacteria. As to the kind of experiment: Antibacterial test, summary for Gram positive bacteria. The format is cell-based. Particulars: summary in words. The method, then:
as §1, §2, §3, §4

[8] abbreviates: MH broth pH 7.4, 24-48 h at 37° C.
The mark [9] stands for this setting: Table 1 values displayed in micromolar units.
The mark [10] stands for this setting: Table 2 values displayed in micromolar units.

Like-named read-outs stand apart in the source and are kept apart here. Positions of bridges follow the written chain, without caps; N, C: chain ends. Non-standard residues stand in square brackets, D forms with d. Residues, ends and D or L forms follow the SMILES beside them. *: point of attachment. Nonanoyl = CCCCCCCCC(=O)*; X1 = CC[C@H](C)CCCCC(=O)*; Dab = NCC[C@H](N)C(=O)O Where only a bound is given, the exact number is not on record here.

Take `CCCCCCCCC(=O)N[C@@H](CCCNC(=N)N)C(=O)N[C@H](C(=O)N[C@@H](CCN)C(=O)N[C@H]1CCNC(=O)[C@H]([C@@H](C)O)NC(=O)[C@H](CCN)NC(=O)[C@H](CCCNC(=N)N)NC(=O)[C@H](CC(C)C)NC(=O)[C@@H](Cc2ccccc2)NC(=O)[C@H](CCN)NC1=O)[C@@H](C)O` [(Ia1), nonanoyl-Arg-Thr-Dab-cyclo(4-10)[Dab-Dab-DPhe-Leu-Arg-Dab-Thr]] (Nonanoyl-RT[Dab][Dab][Dab][dF]LR[Dab]T; lactam 4-C): the “MIC Micrococcus luteus” value in assay [1] (ATCC 9341) worked out at 12.16 µM; in assay [1] (setting [8]) it was 16 µg/mL. For the same molecule, the “MIC Staphylococcus aureus” value in assay [2] (ATCC 6538) was 24.32 µM; in assay [2] (setting [8]), 32 µg/mL. Besides, the “MIC Micobacterium phlei” value in assay [3] (ATCC 41423) lay in the range of 6.08 to 12.16 µM; in assay [3] (ATCC 41423, pH 7.4), 8 to 16 µg/mL. The “MIC Acinetobacter sp ATCC 5798” value in assay [4] (ATCC 5798) was 6.08 µM; in assay [4] (setting [8]), 8 µg/mL. For the same molecule, the entries for the “MIC Pseudomonas aeruginosa 9027” value in assay [5] (ATCC 9027) and in assay [5] (setting [8]) were 3.04 µM and 4 µg/mL, respectively. In addition, the “MIC Salmonella typhimurium 14028” value was 6.08 to 12.16 µM in assay [6] (ATCC 14028) and 8 to 16 µg/mL in assay [6] (ATCC 14028, pH 7.4). Further, the “MIC Escherichia coli 8739” value in assay [7] (ATCC 8739) stood at 3.04 µM; in assay [7] (setting [8]), 4 µg/mL.
Take `CCCCCCCCC(=O)N[C@@H](CCCNC(=N)N)C(=O)N[C@H](C(=O)N[C@@H](CCN)C(=O)N[C@H]1CSSC[C@@H](C(=O)NCC(=O)N[C@@H](CCCNC(=N)N)C(=O)N[C@H](C(=O)N[C@@H](CCC(=O)O)C(=O)N[C@H](C(=O)N[C@@H](CC(C)C)C(=O)N[C@@H](Cc2ccc(O)cc2)C(=O)N[C@@H](CCCNC(=N)N)C(=O)NCC(=O)N[C@@H](CO)C(=O)N[C@@H](Cc2c[nH]c3ccccc23)C(N)=O)C(C)C)C(C)C)NC(=O)[C@H](CCN)NC(=O)[C@H](CCCNC(=N)N)NC(=O)[C@H](CC(C)C)NC(=O)[C@@H](Cc2ccccc2)NC(=O)[C@H](CCN)NC1=O)[C@@H](C)O` [(Ib3)] (Nonanoyl-RT[Dab]C[Dab][dF]LR[Dab]CGRVEVLYRGSW-NH2; disulfide 4-10): the “MIC Micrococcus luteus” value was in the range of 3.03 to 6.06 µM in assay [1] (ATCC 9341) and 8 to 16 µg/mL in assay [1] (ATCC 9341, pH 7.4). Also, the “MIC Staphylococcus aureus” value was 6.06 µM in assay [2] (ATCC 6538) and 16 µg/mL in assay [2] (setting [8]). The entries for the “MIC Micobacterium phlei” value in assay [3] (ATCC 41423) and in assay [3] (setting [8]) were 6.06 µM and 16 µg/mL, respectively. The “MIC Acinetobacter sp ATCC 5798” value in assay [4] (ATCC 5798) turned out to be 1.51 µM; in assay [4] (setting [8]), 4 µg/mL. Also, the “MIC Pseudomonas aeruginosa 9027” value is above 12.12 µM in assay [5] (ATCC 9027) and above 32 µg/mL in assay [5] (ATCC 9027, pH 7.4). Moreover, the “MIC Salmonella typhimurium 14028” value amounted to 6.06 µM in assay [6] (ATCC 14028) and 16 µg/mL in assay [6] (setting [8]). The “MIC Escherichia coli 8739” value in assay [7] (ATCC 8739) was 6.06 µM; in assay [7] (setting [8]), 16 µg/mL.
Regarding `CCCCCCCCC(=O)N[C@@H](CCCNC(=N)N)C(=O)N[C@H](C(=O)N[C@@H](CCN)C(=O)N[C@H]1CSSC[C@@H](C(=O)N[C@@H](CC(C)C)C(=O)N[C@@H](CCSC)C(=O)N[C@@H](Cc2c[nH]c3ccccc23)C(=O)N[C@@H](Cc2c[nH]c3ccccc23)C(=O)N[C@@H](CCSC)C(=O)N[C@@H](CC(C)C)C(N)=O)NC(=O)[C@H](CCN)NC(=O)[C@H](CCCNC(=N)N)NC(=O)[C@H](CC(C)C)NC(=O)[C@@H](Cc2ccccc2)NC(=O)[C@H](CCN)NC1=O)[C@@H](C)O` [(Ib6), nonanoyl-Arg-Thr-Dab-cyclo(S—S)[Cys-Dab-DPhe-Leu-Arg-Dab-Cys]-Leu-Met-Trp-Trp-Met-Leu] (Nonanoyl-RT[Dab]C[Dab][dF]LR[Dab]CLMWWML-NH2; disulfide 4-10), the “MIC Micrococcus luteus” value in assay [1] (ATCC 9341) came to 3.64 µM; in assay [1] (setting [8]) it was 8 µg/mL. Besides, the “MIC Staphylococcus aureus” value in assay [2] (ATCC 6538) came to 7.28 µM; in assay [2] (setting [8]), 16 µg/mL. Besides, the “MIC Micobacterium phlei” value in assay [3] (ATCC 41423) was above 14.56 µM; in assay [3] (ATCC 41423, pH 7.4), above 32 µg/mL. The “MIC Acinetobacter sp ATCC 5798” value was in the range of 3.64 to 7.28 µM in assay [4] (ATCC 5798) and 8 to 16 µg/mL in assay [4] (ATCC 5798, pH 7.4). In addition, the “MIC Pseudomonas aeruginosa 9027” value is above 14.56 µM in assay [5] (ATCC 9027) and above 32 µg/mL in assay [5] (ATCC 9027, pH 7.4). Further, the “MIC Salmonella typhimurium 14028” value in assay [6] (ATCC 14028) is above 14.56 µM; in assay [6] (ATCC 14028, pH 7.4), above 32 µg/mL. The “MIC Escherichia coli 8739” value is above 14.56 µM in assay [7] (ATCC 8739) and above 32 µg/mL in assay [7] (ATCC 8739, pH 7.4).
In the case of `CCCCCCCCC(=O)N[C@@H](CCCNC(=N)N)C(=O)N[C@H](C(=O)N[C@@H](CCN)C(=O)N[C@H]1CSSC[C@H](C(N)=O)NC(=O)[C@H](CCN)NC(=O)[C@H](CCCNC(=N)N)NC(=O)[C@H](CC(C)C)NC(=O)[C@@H](Cc2ccccc2)NC(=O)[C@H](CCN)NC1=O)[C@@H](C)O` [(Ib13), nonanoyl-Arg-Thr-Dab-cyclo(S—S)[Cys-Dab-DPhe-Leu-Arg-Dab-DCys]] (Nonanoyl-RT[Dab]C[Dab][dF]LR[Dab][dC]-NH2; disulfide 4-10), the “MIC Micrococcus luteus” value in assay [1] (ATCC 9341) came to 5.99 µM; in assay [1] (setting [8]) it was 8 µg/mL. For the same molecule, the “MIC Staphylococcus aureus” value in assay [2] (ATCC 6538) was found to be 11.98 µM; in assay [2] (setting [8]), 16 µg/mL. In addition, the “MIC Micobacterium phlei” value in assay [3] (ATCC 41423) was 5.99 to 11.98 µM; in assay [3] (ATCC 41423, pH 7.4) it was 8 to 16 µg/mL. In addition, the “MIC Acinetobacter sp ATCC 5798” value in assay [4] (ATCC 5798) turned out to be 11.98 µM; in assay [4] (setting [8]) it was 16 µg/mL. The “MIC Pseudomonas aeruginosa 9027” value in assay [5] (ATCC 9027) was 2.99 µM; in assay [5] (setting [8]), 4 µg/mL. For the same molecule, the “MIC Salmonella typhimurium 14028” value in assay [6] (ATCC 14028) was determined as 11.98 µM; in assay [6] (setting [8]), 16 µg/mL. For the same molecule, the “MIC Escherichia coli 8739” value in assay [7] (ATCC 8739) was determined as 5.99 µM; in assay [7] (setting [8]), 8 µg/mL.
With `CC[C@H](C)CCCCC(=O)N[C@@H](CCN)C(=O)N[C@H](C(=O)N[C@@H](CCN)C(=O)N[C@H]1CCNC(=O)[C@H]([C@@H](C)O)NC(=O)[C@H](CCN)NC(=O)[C@H](CCN)NC(=O)[C@H](CC(C)C)NC(=O)[C@@H](Cc2ccccc2)NC(=O)[C@H](CCN)NC1=O)[C@@H](C)O` [PxB, (S)-6-methyloctanoyl-Dab-Thr-Dab-cyclo(4-10)[Dab-Dab-DPhe-Leu-Dab-Dab-Thr], reference compound] (X1-[Dab]T[Dab][Dab][Dab][dF]L[Dab][Dab]T; lactam 4-C), the figures for the “MIC Micrococcus luteus” value in assay [1] (setting [8]) and in assay [1] (setting [9]) were 32 µg/mL and 26.90 µM, respectively. Further, the “antibacterial activity in Gram positive bacteria” value in the assay on Gram positive bacteria is recorded as “does not show activity against Gram positive bacteria”. The “MIC Staphylococcus aureus” value was above 32 µg/mL in assay [2] (setting [8]) and above 26.90 µM in assay [2] (setting [9]). Also, the “MIC Micobacterium phlei” value is 32 µg/mL in assay [3] (setting [8]) and 26.90 µM in assay [3] (setting [9]). In addition, the “MIC Acinetobacter sp ATCC 5798” value was determined as 0.5 µg/mL in assay [4] (setting [8]) and 0.42 µM in assay [4] (setting [10]). Also, the figures for the “MIC Pseudomonas aeruginosa 9027” value in assay [5] (setting [8]) and in assay [5] (setting [10]) were 2 µg/mL and 1.68 µM, respectively. In addition, the “MIC Salmonella typhimurium 14028” value in assay [6] (setting [8]) was 1 µg/mL; in assay [6] (setting [10]), 0.84 µM. The results for the “MIC Escherichia coli 8739” value in assay [7] (setting [8]) and in assay [7] (setting [10]) were 1 to 2 µg/mL and 0.84 to 1.68 µM, respectively.
